Data taken from patent publication US12078642B2, “Methods for evaluating and improving cognitive function” (THE UNIVERSITY OF MELBOURNE, priority 2017, dated 2024).
“And” between values parts separate entries of the source, which are not always exact repeats. Identical values can stand only once.

System: old mice
Assay: Barnes Maze cognitive function (memory) test
Assay type: in vivo, mouse
Settings: for Time searching for the escape hatch in the target zone after CE 18:1 versus before (FIG. 11): old mice (24 months), same mice before and after CE 18:1 enriched diet, 470 mg per kg
Experimental: The cognitive function of the mice was tested using a Barnes Maze. The Barnes maze makes use of a mouse's nature to avoid bright lights and open spaces. The Barnes maze was a white 150 cm disk with 36 evenly spaced holes. The disk is elevated 64 cm above the ground and four visual cues—two 3D cues and two 2D cues—are placed in four quadrants, denoting four possible escape holes. The escape box was placed under the assigned escape hole and fastened by tape. Four portable floodlights were used to evenly illuminate the maze and a light meter was used to ensure consistent brightness of 3400 to 3600 lux. Prior to the beginning of a trial, the maze and the escape box were cleaned with 80% ethanol to remove olfactory cues.
The mouse was placed in the centre of the maze under a cover. The cover was then retracted using a pulley system and the mouse was allowed to explore the maze for four minutes to find and enter the escape hole. If the mouse entered the escape hole in less than four minutes, the time was recorded and the floodlights switched off. If the mouse had not entered the escape hole after four minutes, the mouse was gently guided to the escape hole and lights were switched off. The mouse was allowed to remain in the escape box for one minute before it was returned to its home box outside the experimental room. For the probe trial, the escape box was removed and the trial length was shortened to 3 minutes (180 seconds). The duration required, distance traveled, and latency to the assigned escape hole was recorded using topscan lite 2.0. The time the mouse spent in the “target zone” (the 5 holes consisting of the assigned escape hole and the two holes on either side) searching for the assigned escape hole was also recorded.
Trials were conducted over seven days; day 1 contained a single habituation trial, days 2-6 contained 3 acquisition trials a day and day 7 contained a single probe trial. […]
The CE 18:1 oral administration consisted of 20 mg CE 18:1 suspended in 0.5 g of raspberry flavoured agar jelly. To prepare the CE 18:1 enriched jelly, 4 g of agar powder and 0.1 g NaOH pellets was dissolved in 13 ml raspberry flavoured cordial, with MilliQ water added q.s. to form a total of 200 mL jelly solution. To the jelly solution, 400 mg of cholesteryl oleate was suspended in 40 ml of jelly to form the CE 18:1 oral administration.
Seven old mice (24 months old) were subjected to the Barnes Maze as described above, and the time the mice spent investigating the “target zone” during the probe trial was investigated. The same seven old mice were then fed 0.5 g of the CE 18:1 enriched jelly once a day (20 mg CE 18:1, 4% w/w), which correlated to a CE 18:1 dosage rate of 470 mg per kg of bodyweight. The mice were the subjected to the Barnes Maze as described above, and the time the mice spent investigating the “target zone” during the probe trial was investigated.

[1] = individual old mice (24 months), probe trial of 180 s, after 0.5 g CE 18:1 enriched jelly once a day orally (20 mg CE 18:1, 470 mg per kg bodyweight), one value per mouse

## CCCCCCCC/C=C\CCCCCCCC(=O)O[C@H]1CC[C@@]2(C)C(=CC[C@H]3[C@@H]4CC[C@H]([C@H](C)CCCC(C)C)[C@@]4(C)CC[C@@H]32)C1 [CE 18:1, cholesteryl oleate]
Average of seven old mice (24 months), probe trial, after CE 18:1 jelly orally 470 mg per kg, before CE 18:1: 4.70%
  Percentage of time spent at target zone out of 180 sec (%), After CE 18:1, AVERAGE: 9.5%
Average of seven old mice (24 months), probe trial, after CE 18:1 jelly orally 470 mg per kg, before CE 18:1: 8.47 s
  Duration at target zone (s), After CE 18:1, AVERAGE: 17.10 s
[1]
  Duration at target zone (s), After CE 18:1: 16.00 s and 16.48 s and 28.68 s and 4.84 s and 23.40 s and 21.28 s and 9.04 s
  Percentage of time spent at target zone out of 180 sec (%), After CE 18:1: 8.89% and 9.16% and 15.93% and 2.69% and 13.00% and 11.82% and 5.02%
Probe trial
  Time searching for the escape hatch in the target zone after CE 18:1 versus before (FIG. 11): statistical increase in time searching for the escape hatch in the target zone
Probe trial, listed as cholesteryl oleate
  Time searching for the escape hatch in the target zone after CE 18:1 versus before (FIG. 11): improved cognitive function in mice
Probe trial, listed as cholesteryl oleate (CE 18:1)
  Time searching for the escape hatch in the target zone after CE 18:1 versus before (FIG. 11): spent more time investigating the target zone
